Measured values as given in the supplement of paper PMC10331698.
± gives the standard deviation of the averaged measurements.

How the values were obtained:
Test in all cases: level (log10 ratio to DMSO vehicle control); higher = higher biomarker level / cell amount than vehicle control
[1] = compound: C=C(C)C(=O)OCC(F)(F)C(F)(F)C(F)(F)F [2,2,3,3,4,4,4-Heptafluorobutyl methacrylate]; details: in DMSO
Protocol: (§1)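 BioMAP Diversity Plus panel of 12 human primary cell co-culture systems (3C, 4H, LPS, SAg, BT, BF4T, BE3C, CASM3C, HDF3CGF, KF3CT, MyoF, Mphg). Compounds were added 1 h before stimulation and left for 24 h (MyoF 48 h; BT 72 h for soluble read-outs or 6 d for IgG). Biomarkers were read by ELISA, cytotoxicity by SRB, PBMC viability and proliferation by Alamar Blue. Each well value was divided by the mean of 8 DMSO control wells on the same plate and log10 transformed; duplicate blinded samples were tested at 4 concentrations.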

Tetrafluorosuccinic acid = compound: O=C(O)C(F)(F)C(F)(F)C(=O)O [Tetrafluorosuccinic acid]; details: in DMSO
Protocol: as §1

[2] = compound: O=S(=O)(O)CCC(F)(F)C(F)(F)C(F)(F)C(F)(F)F [4:2 Fluorotelomer sulfonic acid]; details: in DMSO
Protocol: as §1

[3] = compound: O=S(=O)(OCC(F)(F)F)C(F)(F)C(F)(F)C(F)(F)C(F)(F)F [2,2,2-Trifluoroethyl perfluorobutanesulfonate]; details: in DMSO
Protocol: as §1

[4] = compound: OCC(F)(F)C(F)(F)C(F)(F)C(F)(F)C(F)(F)C(F)(F)C(F)(F)C(F)(F)CO [1H,1H,10H,10H-Perfluorodecane-1,10-diol]; details: in DMSO
Protocol: as §1

[5] = compound: OCC(F)(F)C(F)(F)C(F)(F)C(F)(F)C(F)(F)C(F)(F)F [6:1 Fluorotelomer alcohol]; details: in DMSO
Protocol: as §1

[6] = compound: OCCC(F)(F)C(F)(F)C(F)(F)C(F)(F)C(F)(F)C(F)(F)C(F)(F)C(F)(F)F [8:2 Fluorotelomer alcohol]; details: 6700 nM; in DMSO
Protocol: as §1

CASM3C:CXCL8/IL-8
level (log10) ([1]; 6700 nM): 0.0035 ± 0.012
level (log10) ([1]; 20000 nM): -0.0085 ± 0.032
level (log10) ([1]; 60000 nM): 0.012 ± 0.024
level (log10) (Tetrafluorosuccinic acid; 6700 nM): -0.001 ± 0.0042
level (log10) (Tetrafluorosuccinic acid; 20000 nM): -0.0145 ± 0.018
level (log10) (Tetrafluorosuccinic acid; 60000 nM): -0.002 ± 0.016
level (log10) ([2]; 6700 nM): 0.0035 ± 0.0035
level (log10) ([2]; 20000 nM): -0.0095 ± 0.026
level (log10) ([2]; 60000 nM): 0.0075 ± 0.025
level (log10) ([3]; 6700 nM): 0.0335 ± 0.0064
level (log10) ([3]; 20000 nM): 0.031 ± 0.048
level (log10) ([3]; 60000 nM): 0.024 ± 0.042
level (log10) ([4]; 6700 nM): -0.0275 ± 0.028
level (log10) ([4]; 20000 nM): -0.048 ± 0.0099
level (log10) ([4]; 60000 nM): -0.011
level (log10) ([5]; 6700 nM): 0.0005 ± 0.015
level (log10) ([5]; 20000 nM): 0.004 ± 0.018
level (log10) ([5]; 60000 nM): 0 ± 0.0014
level (log10) [6]: -0.006 ± 0.011

3C:CD141/Thrombomodulin
level (log10) ([1]; 6700 nM): -0.009 ± 0.0099
level (log10) ([1]; 20000 nM): -0.0145 ± 0.013
level (log10) ([1]; 60000 nM): 0.002 ± 0.0071
level (log10) (Tetrafluorosuccinic acid; 6700 nM): -0.0285 ± 0.039
level (log10) (Tetrafluorosuccinic acid; 20000 nM): -0.048 ± 0.024
level (log10) (Tetrafluorosuccinic acid; 60000 nM): -0.038 ± 0.0085
level (log10) ([2]; 6700 nM): -0.014 ± 0.0028
level (log10) ([2]; 20000 nM): -0.005 ± 0.013
level (log10) ([2]; 60000 nM): -0.013 ± 0.044
level (log10) ([3]; 6700 nM): -0.024 ± 0.018
level (log10) ([3]; 20000 nM): -0.041 ± 0.028
level (log10) ([3]; 60000 nM): -0.051 ± 0.016
level (log10) ([4]; 6700 nM): -0.027 ± 0.037
level (log10) ([4]; 20000 nM): -0.016 ± 0.0014
level (log10) ([4]; 60000 nM): 0.055
level (log10) ([5]; 6700 nM): -0.0155 ± 0.018
level (log10) ([5]; 20000 nM): -0.0285 ± 0.0092
level (log10) ([5]; 60000 nM): -0.005 ± 0.02
level (log10) [6]: 0.044 ± 0.0057

lMphg:CCL3/MIP-1alpha
level (log10) ([1]; 6700 nM): -0.0095 ± 0.0092
level (log10) ([1]; 20000 nM): -0.0355 ± 0.044
level (log10) ([1]; 60000 nM): -0.0065 ± 0.012
level (log10) (Tetrafluorosuccinic acid; 6700 nM): -0.0145 ± 0.025
level (log10) (Tetrafluorosuccinic acid; 20000 nM): -0.0145 ± 0.00071
level (log10) (Tetrafluorosuccinic acid; 60000 nM): -0.001 ± 0.023
level (log10) ([2]; 6700 nM): 0.047 ± 0.031
level (log10) ([2]; 20000 nM): 0.021 ± 0.054
level (log10) ([2]; 60000 nM): 0.0465 ± 0.042
level (log10) ([3]; 6700 nM): -0.025 ± 0.052
level (log10) ([3]; 20000 nM): -0.078 ± 0.054
level (log10) ([3]; 60000 nM): -0.119 ± 0.018
level (log10) ([4]; 6700 nM): -0.0375 ± 0.005
level (log10) ([4]; 20000 nM): -0.02 ± 0.016
level (log10) ([4]; 60000 nM): -0.473
level (log10) ([5]; 6700 nM): 0.009 ± 0.017
level (log10) ([5]; 20000 nM): -0.0095 ± 0.036
level (log10) ([5]; 60000 nM): 0.0235 ± 0.083
level (log10) [6]: 0.079 ± 0.011

MyoF:CD106/VCAM-1
level (log10) ([1]; 6700 nM): 0.0045 ± 0.019
level (log10) ([1]; 20000 nM): -0.006 ± 0.0057
level (log10) ([1]; 60000 nM): 0.0035 ± 0.025
level (log10) (Tetrafluorosuccinic acid; 6700 nM): -0.0095 ± 0.016
level (log10) (Tetrafluorosuccinic acid; 20000 nM): 0.0005 ± 0.019
level (log10) (Tetrafluorosuccinic acid; 60000 nM): -0.015 ± 0.0085
level (log10) ([2]; 6700 nM): -0.0015 ± 0.013
level (log10) ([2]; 20000 nM): -0.0115 ± 0.0092
level (log10) ([2]; 60000 nM): -0.004 ± 0.0014
level (log10) ([3]; 6700 nM): -0.01 ± 0.011
level (log10) ([3]; 20000 nM): 0.026 ± 0.014
level (log10) ([3]; 60000 nM): -0.0075 ± 0.0021
level (log10) ([4]; 6700 nM): 0.0025 ± 0.021
level (log10) ([4]; 20000 nM): -0.0025 ± 0.025
level (log10) ([4]; 60000 nM): -0.19
level (log10) ([5]; 6700 nM): -0.003 ± 0.0071
level (log10) ([5]; 20000 nM): -0.009 ± 0.017
level (log10) ([5]; 60000 nM): -0.002 ± 0.018
level (log10) [6]: -0.026 ± 0.016

BE3C:MMP-9
level (log10) ([1]; 6700 nM): 0.0155 ± 0.0092
level (log10) ([1]; 20000 nM): -0.0075 ± 0.016
level (log10) ([1]; 60000 nM): 0.032 ± 0.025
level (log10) (Tetrafluorosuccinic acid; 6700 nM): -0.014 ± 0.027
level (log10) (Tetrafluorosuccinic acid; 20000 nM): -0.0035 ± 0.011
level (log10) (Tetrafluorosuccinic acid; 60000 nM): -0.005 ± 0.0028
level (log10) ([2]; 6700 nM): -0.0055 ± 0.005
level (log10) ([2]; 20000 nM): -0.0045 ± 0.018
level (log10) ([2]; 60000 nM): 0.0135 ± 0.0092
level (log10) ([3]; 6700 nM): -0.0355 ± 0.021
level (log10) ([3]; 20000 nM): -0.041 ± 0.033
level (log10) ([3]; 60000 nM): -0.061 ± 0.028
level (log10) ([4]; 6700 nM): 0 ± 0.0071
level (log10) ([4]; 20000 nM): -0.041 ± 0.0042
level (log10) ([4]; 60000 nM): -0.14
level (log10) ([5]; 6700 nM): -0.0045 ± 0.037
level (log10) ([5]; 20000 nM): -0.0065 ± 0.019
level (log10) ([5]; 60000 nM): 0.0155 ± 0.021
level (log10) [6]: -0.028 ± 0.02

HDF3CGF:MMP-1
level (log10) ([1]; 6700 nM): 0 ± 0.023
level (log10) ([1]; 20000 nM): 0.0015 ± 0.0064
level (log10) ([1]; 60000 nM): -0.0005 ± 0.016
level (log10) (Tetrafluorosuccinic acid; 6700 nM): 0.0295 ± 0.015
level (log10) (Tetrafluorosuccinic acid; 20000 nM): 0.0315 ± 0.021
level (log10) (Tetrafluorosuccinic acid; 60000 nM): 0.0195 ± 0.022
level (log10) ([2]; 6700 nM): -0.009 ± 0.0028
level (log10) ([2]; 20000 nM): -0.0285 ± 0.028
level (log10) ([2]; 60000 nM): -0.0365 ± 0.026
level (log10) ([3]; 6700 nM): 0.0125 ± 0.0078
level (log10) ([3]; 20000 nM): 0.022 ± 0.0085
level (log10) ([3]; 60000 nM): 0.0405 ± 0.0092
level (log10) ([4]; 6700 nM): 0.0025 ± 0.00071
level (log10) ([4]; 20000 nM): 0.005 ± 0.018
level (log10) ([4]; 60000 nM): -0.299
level (log10) ([5]; 6700 nM): 0.002 ± 0.0099
level (log10) ([5]; 20000 nM): 0.008 ± 0.0071
level (log10) ([5]; 60000 nM): -0.0355 ± 0.07
level (log10) [6]: 0.034 ± 0.0014

BE3C:tPA
level (log10) ([1]; 6700 nM): -0.0095 ± 0.029
level (log10) ([1]; 20000 nM): -0.016 ± 0.016
level (log10) ([1]; 60000 nM): -0.021 ± 0.027
level (log10) (Tetrafluorosuccinic acid; 6700 nM): -0.037 ± 0.023
level (log10) (Tetrafluorosuccinic acid; 20000 nM): -0.0505 ± 0.026
level (log10) (Tetrafluorosuccinic acid; 60000 nM): -0.0365 ± 0.022
level (log10) ([2]; 6700 nM): 0.012 ± 0.013
level (log10) ([2]; 20000 nM): -0.0315 ± 0.03
level (log10) ([2]; 60000 nM): 0.011 ± 0.05
level (log10) ([3]; 6700 nM): 0.0045 ± 0.021
level (log10) ([3]; 20000 nM): 0.028 ± 0.016
level (log10) ([3]; 60000 nM): 0.085 ± 0.031
level (log10) ([4]; 6700 nM): 0.073 ± 0.021
level (log10) ([4]; 20000 nM): 0.097 ± 0.011
level (log10) ([4]; 60000 nM): -0.108
level (log10) ([5]; 6700 nM): 0.0055 ± 0.012
level (log10) ([5]; 20000 nM): -0.0145 ± 0.019
level (log10) ([5]; 60000 nM): -0.0075 ± 0.0021
level (log10) [6]: -0.064 ± 0.013

lMphg:SRB-Mphg
level (log10) ([1]; 6700 nM): 0.003
level (log10) ([1]; 20000 nM): -0.0115 ± 0.016
level (log10) ([1]; 60000 nM): 0.0155 ± 0.016
level (log10) (Tetrafluorosuccinic acid; 6700 nM): -0.0035 ± 0.015
level (log10) (Tetrafluorosuccinic acid; 20000 nM): -0.0075 ± 0.013
level (log10) (Tetrafluorosuccinic acid; 60000 nM): -0.013 ± 0.016
level (log10) ([2]; 6700 nM): -0.004
level (log10) ([2]; 20000 nM): 0.01
level (log10) ([2]; 60000 nM): 0.0065 ± 0.016
level (log10) ([3]; 6700 nM): -0.005 ± 0.0071
level (log10) ([3]; 20000 nM): -0.019 ± 0.014
level (log10) ([3]; 60000 nM): -0.024 ± 0.031
level (log10) ([4]; 6700 nM): 0.003 ± 0.028
level (log10) ([4]; 20000 nM): -0.0625 ± 0.084
level (log10) ([4]; 60000 nM): -0.775
level (log10) ([5]; 6700 nM): -0.0015 ± 0.0064
level (log10) ([5]; 20000 nM): -0.02 ± 0.014
level (log10) ([5]; 60000 nM): -0.0595 ± 0.054
level (log10) [6]: -0.015 ± 0.03
